Measurements from the kinase profiling compilation of Christmann-Franck et al. (2016).

Columns and labels:
Test in all cases: KINOMEscan competition binding
Details in all cases: compound 10.0 µM
BMPR1A (human) = BMPR1A (human) (UniProt P36894)
FGFR3 (human) = FGFR3 (human) (UniProt P22607)
CDK3 (human) = CDK3 (human) (UniProt Q00526)
CSF1R (human) = CSF1R (human) (UniProt P07333)
PHKG1 (human) = PHKG1 (human) (UniProt Q16816)
EPHB3 (human) = EPHB3 (human) (UniProt P54753)
RPS6KA1 KD1 (human) = RPS6KA1 KD1 (human) (UniProt Q15418)
MAP3K7 (human) = MAP3K7 (human) (UniProt O43318)
ALK (human) = ALK (human) (UniProt Q9UM73)
STK3 (human) = STK3 (human) (UniProt Q13188)
STK24 (human) = STK24 (human) (UniProt Q9Y6E0)
PHKG2 (human) = PHKG2 (human) (UniProt P15735)
MLTK (human) = MLTK (human) (UniProt Q9NYL2)
VRK2 (human) = VRK2 (human) (UniProt Q86Y07)
CHEK1 (human) = CHEK1 (human) (UniProt O14757)
EPHB2 (human) = EPHB2 (human) (UniProt P29323)
CPK1 (P.falciparum) = tested on: CPK1 (P.falciparum)
MAP2K5 (human) = MAP2K5 (human) (UniProt Q13163)
STK36 (human) = STK36 (human) (UniProt Q9NRP7)
INSRR (human) = INSRR (human) (UniProt P14616)
[1] = tested on: RET (human), P07949 [V804M]
PRKX (human) = PRKX (human) (UniProt P51817)
SRPK1 (human) = SRPK1 (human) (UniProt Q96SB4)
CIT (human) = CIT (human) (UniProt O14578)
DCLK3 (human) = DCLK3 (human) (UniProt Q9C098)
RPS6KA4 KD2 (human) = RPS6KA4 KD2 (human) (UniProt O75676)
LIMK1 (human) = LIMK1 (human) (UniProt P53667)
PIM3 (human) = PIM3 (human) (UniProt Q86V86)
EPHB4 (human) = EPHB4 (human) (UniProt P54760)
PRKCQ (human) = PRKCQ (human) (UniProt Q04759)
NTRK3 (human) = NTRK3 (human) (UniProt Q16288)
PKN2 (human) = PKN2 (human) (UniProt Q16513)
TEC (human) = TEC (human) (UniProt P42680)
MAPK13 (human) = MAPK13 (human) (UniProt O15264)
FES (human) = FES (human) (UniProt P07332)
MET (human) = MET (human) (UniProt P08581)
MAP4K2 (human) = MAP4K2 (human) (UniProt Q12851)
FLT4 (human) = FLT4 (human) (UniProt P35916)
TNK1 (human) = TNK1 (human) (UniProt Q13470)
MARK2 (human) = MARK2 (human) (UniProt Q7KZI7)

MAP2K5 (human), sequence (Q13163 whole entry, looked up): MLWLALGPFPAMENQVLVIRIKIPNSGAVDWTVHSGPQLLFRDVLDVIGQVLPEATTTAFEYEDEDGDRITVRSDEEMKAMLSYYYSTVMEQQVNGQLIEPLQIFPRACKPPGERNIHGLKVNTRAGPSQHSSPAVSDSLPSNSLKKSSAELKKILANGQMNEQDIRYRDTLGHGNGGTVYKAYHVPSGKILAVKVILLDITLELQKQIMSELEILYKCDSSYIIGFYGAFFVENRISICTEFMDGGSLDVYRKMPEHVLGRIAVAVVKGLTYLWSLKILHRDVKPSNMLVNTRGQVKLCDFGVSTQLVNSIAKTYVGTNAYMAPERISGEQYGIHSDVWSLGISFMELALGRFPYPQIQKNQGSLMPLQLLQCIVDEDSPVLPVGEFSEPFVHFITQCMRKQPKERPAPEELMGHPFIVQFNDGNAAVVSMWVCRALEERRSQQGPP
PHKG1 (human), sequence (Q16816 whole entry, looked up): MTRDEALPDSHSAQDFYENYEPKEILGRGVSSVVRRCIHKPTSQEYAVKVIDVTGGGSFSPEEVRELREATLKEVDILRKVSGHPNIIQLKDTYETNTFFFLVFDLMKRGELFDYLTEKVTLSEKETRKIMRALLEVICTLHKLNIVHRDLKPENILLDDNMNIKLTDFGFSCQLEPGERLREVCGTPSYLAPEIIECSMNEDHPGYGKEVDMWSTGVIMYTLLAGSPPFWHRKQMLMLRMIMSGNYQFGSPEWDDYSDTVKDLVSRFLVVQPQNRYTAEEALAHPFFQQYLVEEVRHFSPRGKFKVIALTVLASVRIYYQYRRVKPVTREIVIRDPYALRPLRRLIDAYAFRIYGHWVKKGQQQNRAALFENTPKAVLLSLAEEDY
MET (human), sequence (P08581 whole entry, looked up): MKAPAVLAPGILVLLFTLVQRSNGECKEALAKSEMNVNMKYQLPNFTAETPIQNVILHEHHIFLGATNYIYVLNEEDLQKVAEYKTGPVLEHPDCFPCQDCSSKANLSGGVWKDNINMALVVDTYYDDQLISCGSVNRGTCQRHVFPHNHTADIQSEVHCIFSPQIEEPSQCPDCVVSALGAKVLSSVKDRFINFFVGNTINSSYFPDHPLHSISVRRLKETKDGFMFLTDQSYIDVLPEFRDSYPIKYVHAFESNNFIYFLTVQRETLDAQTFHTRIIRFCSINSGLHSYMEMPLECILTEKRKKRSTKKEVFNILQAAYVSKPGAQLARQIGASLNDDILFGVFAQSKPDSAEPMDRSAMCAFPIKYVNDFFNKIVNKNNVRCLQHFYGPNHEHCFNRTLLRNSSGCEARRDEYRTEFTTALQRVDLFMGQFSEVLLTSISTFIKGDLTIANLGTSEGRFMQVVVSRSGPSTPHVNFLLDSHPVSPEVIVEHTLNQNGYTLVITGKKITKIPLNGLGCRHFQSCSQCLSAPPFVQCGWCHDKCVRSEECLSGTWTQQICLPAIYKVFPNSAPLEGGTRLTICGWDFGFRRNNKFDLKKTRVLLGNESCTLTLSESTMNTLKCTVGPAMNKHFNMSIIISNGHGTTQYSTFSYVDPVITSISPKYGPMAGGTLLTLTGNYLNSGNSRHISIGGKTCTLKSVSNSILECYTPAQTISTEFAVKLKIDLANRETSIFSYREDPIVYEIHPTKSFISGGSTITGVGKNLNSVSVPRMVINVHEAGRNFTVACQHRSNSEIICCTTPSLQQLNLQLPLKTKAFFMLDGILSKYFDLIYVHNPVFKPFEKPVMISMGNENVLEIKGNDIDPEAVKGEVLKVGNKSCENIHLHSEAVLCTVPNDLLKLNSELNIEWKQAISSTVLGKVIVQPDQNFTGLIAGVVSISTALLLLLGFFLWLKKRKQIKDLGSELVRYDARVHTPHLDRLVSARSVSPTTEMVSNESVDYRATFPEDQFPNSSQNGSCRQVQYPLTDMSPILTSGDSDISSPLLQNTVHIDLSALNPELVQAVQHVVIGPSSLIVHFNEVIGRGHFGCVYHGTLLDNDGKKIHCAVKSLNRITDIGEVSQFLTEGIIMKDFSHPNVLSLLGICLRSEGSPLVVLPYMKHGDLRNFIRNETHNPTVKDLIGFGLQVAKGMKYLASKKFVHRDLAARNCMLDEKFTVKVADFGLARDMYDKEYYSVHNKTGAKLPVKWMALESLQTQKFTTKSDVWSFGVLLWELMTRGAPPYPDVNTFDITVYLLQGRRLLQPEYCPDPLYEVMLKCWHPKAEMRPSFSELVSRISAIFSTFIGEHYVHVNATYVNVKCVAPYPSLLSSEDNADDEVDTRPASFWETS
VRK2 (human), sequence (Q86Y07 whole entry, looked up): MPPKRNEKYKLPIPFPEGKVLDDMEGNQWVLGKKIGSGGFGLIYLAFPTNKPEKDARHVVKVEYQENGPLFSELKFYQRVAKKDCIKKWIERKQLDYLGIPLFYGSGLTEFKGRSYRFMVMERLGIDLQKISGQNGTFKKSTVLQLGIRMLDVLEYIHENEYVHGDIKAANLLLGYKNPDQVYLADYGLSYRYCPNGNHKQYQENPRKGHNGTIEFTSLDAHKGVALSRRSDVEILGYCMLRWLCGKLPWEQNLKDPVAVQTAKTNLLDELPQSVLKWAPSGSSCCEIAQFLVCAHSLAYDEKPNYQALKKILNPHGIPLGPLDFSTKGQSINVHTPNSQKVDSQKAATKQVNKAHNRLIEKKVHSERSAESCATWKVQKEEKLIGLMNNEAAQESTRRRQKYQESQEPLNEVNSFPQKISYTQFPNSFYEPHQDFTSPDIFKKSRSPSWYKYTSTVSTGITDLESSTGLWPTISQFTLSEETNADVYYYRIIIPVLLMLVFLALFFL
CSF1R (human), sequence (P07333 whole entry, looked up): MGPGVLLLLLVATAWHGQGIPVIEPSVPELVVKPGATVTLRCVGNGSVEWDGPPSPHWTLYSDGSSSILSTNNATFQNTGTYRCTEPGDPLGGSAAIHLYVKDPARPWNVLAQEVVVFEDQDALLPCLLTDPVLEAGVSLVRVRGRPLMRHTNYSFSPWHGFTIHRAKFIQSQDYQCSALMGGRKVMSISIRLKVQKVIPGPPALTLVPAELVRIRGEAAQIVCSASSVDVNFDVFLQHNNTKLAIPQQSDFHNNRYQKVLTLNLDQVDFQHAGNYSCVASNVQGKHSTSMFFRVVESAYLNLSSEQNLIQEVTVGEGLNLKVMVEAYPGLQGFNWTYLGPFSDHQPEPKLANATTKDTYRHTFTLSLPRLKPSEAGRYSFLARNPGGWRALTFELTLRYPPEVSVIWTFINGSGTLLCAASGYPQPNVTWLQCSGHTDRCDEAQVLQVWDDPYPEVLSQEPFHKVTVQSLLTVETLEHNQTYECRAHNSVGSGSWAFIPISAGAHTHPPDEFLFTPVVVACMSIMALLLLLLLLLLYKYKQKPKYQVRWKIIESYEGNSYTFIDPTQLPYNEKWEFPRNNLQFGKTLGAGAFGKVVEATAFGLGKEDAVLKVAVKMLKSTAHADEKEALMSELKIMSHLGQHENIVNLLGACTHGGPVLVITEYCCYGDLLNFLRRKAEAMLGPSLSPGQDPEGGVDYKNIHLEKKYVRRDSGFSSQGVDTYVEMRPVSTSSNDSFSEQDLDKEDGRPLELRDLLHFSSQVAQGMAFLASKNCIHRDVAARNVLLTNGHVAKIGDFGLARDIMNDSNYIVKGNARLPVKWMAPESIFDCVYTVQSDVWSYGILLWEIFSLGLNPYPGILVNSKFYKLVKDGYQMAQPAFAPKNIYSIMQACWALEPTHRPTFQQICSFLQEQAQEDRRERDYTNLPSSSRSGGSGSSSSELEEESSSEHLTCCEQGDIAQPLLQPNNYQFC
STK3 (human), sequence (Q13188 whole entry, looked up): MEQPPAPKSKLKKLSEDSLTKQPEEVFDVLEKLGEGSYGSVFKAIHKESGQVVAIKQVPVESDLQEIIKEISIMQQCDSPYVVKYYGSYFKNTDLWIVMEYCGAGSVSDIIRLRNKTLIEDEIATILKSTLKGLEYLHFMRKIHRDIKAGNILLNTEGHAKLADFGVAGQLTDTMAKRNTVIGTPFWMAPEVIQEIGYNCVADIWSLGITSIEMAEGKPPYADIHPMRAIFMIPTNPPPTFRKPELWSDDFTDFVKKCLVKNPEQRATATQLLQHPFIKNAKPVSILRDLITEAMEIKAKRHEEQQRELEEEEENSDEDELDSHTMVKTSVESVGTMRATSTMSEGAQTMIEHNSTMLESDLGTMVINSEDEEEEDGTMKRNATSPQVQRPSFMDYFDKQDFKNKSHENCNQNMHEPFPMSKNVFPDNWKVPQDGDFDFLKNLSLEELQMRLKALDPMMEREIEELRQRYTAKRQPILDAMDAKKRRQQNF
FES (human), sequence (P07332 whole entry, looked up): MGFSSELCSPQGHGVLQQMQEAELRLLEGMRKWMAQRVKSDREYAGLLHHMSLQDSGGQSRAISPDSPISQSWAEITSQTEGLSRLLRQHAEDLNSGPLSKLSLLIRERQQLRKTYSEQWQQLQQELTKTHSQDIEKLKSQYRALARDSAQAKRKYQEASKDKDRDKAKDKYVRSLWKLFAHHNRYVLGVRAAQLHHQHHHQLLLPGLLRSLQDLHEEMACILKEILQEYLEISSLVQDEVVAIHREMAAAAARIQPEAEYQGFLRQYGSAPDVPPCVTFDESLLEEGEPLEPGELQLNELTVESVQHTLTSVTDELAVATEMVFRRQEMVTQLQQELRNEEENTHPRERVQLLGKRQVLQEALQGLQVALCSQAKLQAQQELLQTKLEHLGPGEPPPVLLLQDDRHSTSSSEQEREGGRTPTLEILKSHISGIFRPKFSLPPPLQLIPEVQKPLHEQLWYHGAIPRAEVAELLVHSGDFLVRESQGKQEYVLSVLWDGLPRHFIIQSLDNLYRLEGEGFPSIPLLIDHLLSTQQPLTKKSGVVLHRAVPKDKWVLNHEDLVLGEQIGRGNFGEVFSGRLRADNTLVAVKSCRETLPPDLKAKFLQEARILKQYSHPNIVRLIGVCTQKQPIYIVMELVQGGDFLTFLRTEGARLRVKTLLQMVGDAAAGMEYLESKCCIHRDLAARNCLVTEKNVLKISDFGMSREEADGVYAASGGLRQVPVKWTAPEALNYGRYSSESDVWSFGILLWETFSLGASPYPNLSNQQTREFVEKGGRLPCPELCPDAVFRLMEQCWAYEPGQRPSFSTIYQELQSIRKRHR

| SMILES | kinase still bound, per cent of control (BMPR1A (human)) [%] | kinase still bound, per cent of control (FGFR3 (human)) [%] | kinase still bound, per cent of control (CDK3 (human)) [%] | kinase still bound, per cent of control (CSF1R (human)) [%] | kinase still bound, per cent of control (PHKG1 (human)) [%] | kinase still bound, per cent of control (EPHB3 (human)) [%] | kinase still bound, per cent of control (RPS6KA1 KD1 (human)) [%] | kinase still bound, per cent of control (MAP3K7 (human)) [%] | kinase still bound, per cent of control (ALK (human)) [%] | kinase still bound, per cent of control (STK24 (human)) [%] | kinase still bound, per cent of control (PHKG2 (human)) [%] | kinase still bound, per cent of control (MLTK (human)) [%] | kinase still bound, per cent of control (VRK2 (human)) [%] | kinase still bound, per cent of control (CHEK1 (human)) [%] | kinase still bound, per cent of control (EPHB2 (human)) [%] | kinase still bound, per cent of control (CPK1 (P.falciparum)) [%] | kinase still bound, per cent of control (MAP2K5 (human)) [%] | kinase still bound, per cent of control (STK36 (human)) [%] | kinase still bound, per cent of control (INSRR (human)) [%] | kinase still bound, per cent of control (PRKX (human)) [%] | also measured |
| --- | --- | --- | --- | --- | --- | --- | --- | --- | --- | --- | --- | --- | --- | --- | --- | --- | --- | --- | --- | --- | --- |
| COc1cc2ncnc(-n3nc(-c4ccccn4)nc3N)c2cc1OC | 0.3 | 84 | 82 | 52 | 55 | 56 | 33 | 15 | 45 | 56 | 36 | 4.5 | 9.8 | 100 | 47 | 1.4 | 1.1 | 7.4 | 100 | 79 | kinase still bound, per cent of control (STK3 (human)): 54%; kinase still bound, per cent of control [1]: 66%; kinase still bound, per cent of control (SRPK1 (human)): 83%; kinase still bound, per cent of control (CIT (human)): 30%; kinase still bound, per cent of control (DCLK3 (human)): 100%; kinase still bound, per cent of control (RPS6KA4 KD2 (human)): 0.6%; kinase still bound, per cent of control (LIMK1 (human)): 22%; kinase still bound, per cent of control (PIM3 (human)): 7.6%; kinase still bound, per cent of control (EPHB4 (human)): 22%; kinase still bound, per cent of control (PRKCQ (human)): 100%; kinase still bound, per cent of control (NTRK3 (human)): 100%; kinase still bound, per cent of control (PKN2 (human)): 79%; kinase still bound, per cent of control (TEC (human)): 100%; kinase still bound, per cent of control (MAPK13 (human)): 100%; kinase still bound, per cent of control (FES (human)): 99%; kinase still bound, per cent of control (MET (human)): 55%; kinase still bound, per cent of control (MAP4K2 (human)): 43%; kinase still bound, per cent of control (FLT4 (human)): 14%; kinase still bound, per cent of control (TNK1 (human)): 11%; kinase still bound, per cent of control (MARK2 (human)): 53% |
| COCC(=O)NC/C=C/c1ccc2ncnc(Nc3ccc(Oc4ccc(C)nc4)c(C)c3)c2c1 | 17 | 100 | 100 | 100 | 100 | 86 | 100 | 100 | 100 | 90 | 86 | 76 | 100 | 90 | 100 | 25 | 0.2 | 100 | 100 | 100 | kinase still bound, per cent of control (STK3 (human)): 82%; kinase still bound, per cent of control (SRPK1 (human)): 100%; kinase still bound, per cent of control (CIT (human)): 76%; kinase still bound, per cent of control (DCLK3 (human)): 83%; kinase still bound, per cent of control (RPS6KA4 KD2 (human)): 100%; kinase still bound, per cent of control (LIMK1 (human)): 93%; kinase still bound, per cent of control (PIM3 (human)): 100%; kinase still bound, per cent of control (EPHB4 (human)): 95%; kinase still bound, per cent of control (PRKCQ (human)): 100%; kinase still bound, per cent of control (NTRK3 (human)): 93%; kinase still bound, per cent of control (PKN2 (human)): 99%; kinase still bound, per cent of control (TEC (human)): 73%; kinase still bound, per cent of control (MAPK13 (human)): 100%; kinase still bound, per cent of control (FES (human)): 100%; kinase still bound, per cent of control (MET (human)): 74%; kinase still bound, per cent of control (MAP4K2 (human)): 100%; kinase still bound, per cent of control (FLT4 (human)): 98%; kinase still bound, per cent of control (TNK1 (human)): 86% |
| NC(=O)Nc1cc(-c2cccc(F)c2)sc1C(=O)N[C@@H]1CCCNC1 | 0.4 | 16 | 100 | 0 | 0.1 | 95 | 11 | 0 | 0.05 | 0.3 | 1.6 | 40 | 92 | 0.25 | 9.6 | 0.1 | 0.05 | 74 | 22 | 0.7 | kinase still bound, per cent of control [1]: 0%; kinase still bound, per cent of control (SRPK1 (human)): 1.4%; kinase still bound, per cent of control (CIT (human)): 0.2%; kinase still bound, per cent of control (DCLK3 (human)): 56%; kinase still bound, per cent of control (RPS6KA4 KD2 (human)): 0.35%; kinase still bound, per cent of control (LIMK1 (human)): 62%; kinase still bound, per cent of control (PIM3 (human)): 15%; kinase still bound, per cent of control (EPHB4 (human)): 6.4%; kinase still bound, per cent of control (PRKCQ (human)): 0%; kinase still bound, per cent of control (NTRK3 (human)): 0.2%; kinase still bound, per cent of control (PKN2 (human)): 38%; kinase still bound, per cent of control (TEC (human)): 0.4%; kinase still bound, per cent of control (MAPK13 (human)): 100%; kinase still bound, per cent of control (FES (human)): 0.65%; kinase still bound, per cent of control (MET (human)): 3.1%; kinase still bound, per cent of control (MAP4K2 (human)): 0%; kinase still bound, per cent of control (FLT4 (human)): 0%; kinase still bound, per cent of control (TNK1 (human)): 1.4%; kinase still bound, per cent of control (MARK2 (human)): 0.9% |
| O=C(Nc1cccc(Nc2ncc(Br)c(NCCc3cnc[nH]3)n2)c1)N1CCCC1 | 0.8 | 1 | 62 | 1.4 | 2.3 | 100 | 4.3 | 1.3 | 14 | 2 | 8.9 | 12 | 12 | 0.4 | 100 | 3.8 | 0.6 | 18 | 4.8 | 0.2 | kinase still bound, per cent of control (STK3 (human)): 0.45%; kinase still bound, per cent of control [1]: 0.05%; kinase still bound, per cent of control (SRPK1 (human)): 4.2%; kinase still bound, per cent of control (CIT (human)): 0.75%; kinase still bound, per cent of control (DCLK3 (human)): 48%; kinase still bound, per cent of control (RPS6KA4 KD2 (human)): 0.95%; kinase still bound, per cent of control (LIMK1 (human)): 38%; kinase still bound, per cent of control (PIM3 (human)): 69%; kinase still bound, per cent of control (EPHB4 (human)): 78%; kinase still bound, per cent of control (PRKCQ (human)): 3.6%; kinase still bound, per cent of control (NTRK3 (human)): 2.6%; kinase still bound, per cent of control (PKN2 (human)): 4.6%; kinase still bound, per cent of control (TEC (human)): 47%; kinase still bound, per cent of control (MAPK13 (human)): 11%; kinase still bound, per cent of control (FES (human)): 33%; kinase still bound, per cent of control (MET (human)): 4.4%; kinase still bound, per cent of control (MAP4K2 (human)): 0.15%; kinase still bound, per cent of control (FLT4 (human)): 0.05%; kinase still bound, per cent of control (TNK1 (human)): 1.4%; kinase still bound, per cent of control (MARK2 (human)): 0.4% |
